ChEMBL document CHEMBL5465560, “Selectivity Literature for EUbOPEN Chemogenomic Library” (2024)

Assays:
[1] = tested on: Epidermal growth factor receptor (Homo sapiens), P00533 [UNDEFINED MUTATION]; assay: Selectivity interaction (KinomeScan (DiscoverX)) EUB0000229b EGFR; conditions: at 1 µM
[2] = biological target: Ribosomal protein S6 kinase alpha-1 (Homo sapiens, UniProt Q15418); assay: Selectivity interaction (KinomeScan (DiscoverX)) EUB0000229b RPS6KA1; conditions: at 10 µM
[3] = biological target: Tyrosine-protein kinase Fes/Fps (Homo sapiens) (UniProt P07332); assay: Selectivity interaction (KinomeScan (DiscoverX)) EUB0000655a FES; conditions: at 10 µM
[4] = biological target: Acetylcholine receptor subunit alpha (Homo sapiens, UniProt P02708); assay: Selectivity interaction (Panel of kinases, GPCRs, ion channels and transporters (enzymatic assay)) EUB0000266bCl CHRNA1
[5] = biological target: Death-associated protein kinase 1 (Homo sapiens, UniProt P53355); assay: Selectivity interaction (KinomeScan (DiscoverX)) EUB0001079a DAPK1; conditions: at 1 µM
[6] = Selectivity interaction (KinomeScan (DiscoverX)) EUB0001079a CDK2H; conditions: at 1 µM
[7] = biological target: Rho-associated protein kinase 1 (Homo sapiens) (UniProt Q13464); assay: Selectivity interaction (KinomeScan (DiscoverX)) EUB0000666a ROCK1; conditions: at 10 µM
[8] = biological target: Phosphatidylinositol 4,5-bisphosphate 3-kinase catalytic subunit alpha isoform (Homo sapiens) (UniProt P42336); assay: Selectivity interaction (Adapta Assay) EUB0001632a PIK3CA; conditions: at 10 µM
[9] = biological target: Insulin receptor-related protein (Homo sapiens) (UniProt P14616); assay: Selectivity interaction (Kinase panel (Z-LYTE Assay)) EUB0001632a INSRR; conditions: at 10 µM
[10] = biological target: Mitogen-activated protein kinase 8 (Homo sapiens, UniProt P45983); assay: Selectivity interaction (LanthaScreen Eu Kinase Binding Assay) EUB0001632a MAPK8; conditions: at 10 µM
[11] = biological target: Calcium/calmodulin-dependent protein kinase kinase 1 (Homo sapiens) (UniProt Q8N5S9); assay: Selectivity interaction (Kinase panel (Invitrogen)) EUB0000639a CAMKK1; conditions: at 200 nM
[12] = biological target: Calcium/calmodulin-dependent protein kinase type 1 (Homo sapiens) (UniProt Q14012); assay: Selectivity interaction (ActivX KiNativ screen (kinase selectivity in THP-1 cell lysates)) EUB0000639a CAMK1; format: subcellular; conditions: lysate, at 1 µM
[13] = biological target: T1, Ribosomal protein S6 kinase alpha-3 (Homo sapiens, UniProt P51812); assay: (§1) Selectivity interaction (ActivX KiNativ screen (kinase selectivity in THP-1 cell lysates)) EUB0000639a RPS6KA3; format: subcellular; conditions: lysate, at 5 µM
[14] = biological target: T1, Ribosomal protein S6 kinase alpha-3; assay: as §1; format: subcellular; conditions: lysate, at 0.01 µM
[15] = biological target: Dual specificity protein kinase CLK4 (Homo sapiens, UniProt Q9HAZ1); assay: Selectivity interaction (KinomeScan (DiscoverX)) EUB0000607a CLK4; conditions: at 10 µM
[16] = biological target: T2, Cytoplasmic tyrosine-protein kinase BMX (Homo sapiens) (UniProt P51813); assay: Selectivity interaction (KinomeScan (DiscoverX)) EUB0001049a BMX; conditions: at 1 µM
T2 sequence (whole entry): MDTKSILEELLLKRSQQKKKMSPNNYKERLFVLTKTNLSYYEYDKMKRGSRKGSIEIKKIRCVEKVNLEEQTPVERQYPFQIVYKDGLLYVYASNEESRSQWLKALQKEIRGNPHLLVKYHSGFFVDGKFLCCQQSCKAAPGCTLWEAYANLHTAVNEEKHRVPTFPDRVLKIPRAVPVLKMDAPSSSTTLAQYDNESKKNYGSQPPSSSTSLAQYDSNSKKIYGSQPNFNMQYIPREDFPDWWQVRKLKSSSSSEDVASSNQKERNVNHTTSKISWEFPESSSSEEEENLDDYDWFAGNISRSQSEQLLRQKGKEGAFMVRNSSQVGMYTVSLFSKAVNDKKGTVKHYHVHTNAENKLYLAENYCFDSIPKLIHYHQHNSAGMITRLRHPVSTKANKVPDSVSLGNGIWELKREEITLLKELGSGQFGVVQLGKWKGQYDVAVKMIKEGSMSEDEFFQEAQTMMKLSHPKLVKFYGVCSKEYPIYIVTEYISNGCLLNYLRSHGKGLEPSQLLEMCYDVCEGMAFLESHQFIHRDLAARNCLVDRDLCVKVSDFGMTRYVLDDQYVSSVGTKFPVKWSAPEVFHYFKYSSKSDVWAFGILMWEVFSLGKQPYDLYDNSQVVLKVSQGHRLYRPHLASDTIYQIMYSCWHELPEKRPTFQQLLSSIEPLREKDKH

[17] = tested on: Fibroblast growth factor receptor 3 (Homo sapiens), P22607 [G697C]; assay: (§2) Selectivity interaction (KinomeScan (DiscoverX)) EUB0000695a FGFR3; conditions: at 100 nM
[18] = biological target: Fibroblast growth factor receptor 3 (Homo sapiens, UniProt P22607); assay: as §2; conditions: at 100 nM
[19] = biological target: RAF proto-oncogene serine/threonine-protein kinase (Homo sapiens) (UniProt P04049); assay: Selectivity interaction (Kinase panel (Eurofins)) EUB0001564a RAF1; conditions: at 1 µM
[20] = biological target: Serine/threonine-protein kinase 38-like (Homo sapiens) (UniProt Q9Y2H1); assay: Selectivity interaction (KinomeScan (DiscoverX)) EUB0000618a STK38L; conditions: at 10 µM
[21] = biological target: Casein kinase I isoform gamma-3 (Homo sapiens) (UniProt Q9Y6M4); assay: Selectivity interaction (KinomeScan (DiscoverX)) EUB0000618a CSNK1G3; conditions: at 10 µM
[22] = biological target: Mitogen-activated protein kinase kinase kinase 1 (Homo sapiens, UniProt Q13233); assay: Selectivity interaction (KinomeScan (DiscoverX)) EUB0000618a MAP3K1; conditions: at 10 µM
[23] = biological target: Melatonin receptor type 1A (Homo sapiens) (UniProt P48039); assay: Selectivity interaction (Eurofins CEREP Diversity Profile (receptors and ion channels)) EUB0000279b MTNR1A; conditions: at 10 µM
[24] = biological target: Serine/threonine-protein kinase pim-2 (Homo sapiens, UniProt Q9P1W9); assay: Selectivity interaction (Ambit KINOMEscan and KiNATiv profiling in Jurkat cells) EUB0000090b PIM2; format: cell-based; conditions: at 1 µM

T1 sequence (P51812 whole entry): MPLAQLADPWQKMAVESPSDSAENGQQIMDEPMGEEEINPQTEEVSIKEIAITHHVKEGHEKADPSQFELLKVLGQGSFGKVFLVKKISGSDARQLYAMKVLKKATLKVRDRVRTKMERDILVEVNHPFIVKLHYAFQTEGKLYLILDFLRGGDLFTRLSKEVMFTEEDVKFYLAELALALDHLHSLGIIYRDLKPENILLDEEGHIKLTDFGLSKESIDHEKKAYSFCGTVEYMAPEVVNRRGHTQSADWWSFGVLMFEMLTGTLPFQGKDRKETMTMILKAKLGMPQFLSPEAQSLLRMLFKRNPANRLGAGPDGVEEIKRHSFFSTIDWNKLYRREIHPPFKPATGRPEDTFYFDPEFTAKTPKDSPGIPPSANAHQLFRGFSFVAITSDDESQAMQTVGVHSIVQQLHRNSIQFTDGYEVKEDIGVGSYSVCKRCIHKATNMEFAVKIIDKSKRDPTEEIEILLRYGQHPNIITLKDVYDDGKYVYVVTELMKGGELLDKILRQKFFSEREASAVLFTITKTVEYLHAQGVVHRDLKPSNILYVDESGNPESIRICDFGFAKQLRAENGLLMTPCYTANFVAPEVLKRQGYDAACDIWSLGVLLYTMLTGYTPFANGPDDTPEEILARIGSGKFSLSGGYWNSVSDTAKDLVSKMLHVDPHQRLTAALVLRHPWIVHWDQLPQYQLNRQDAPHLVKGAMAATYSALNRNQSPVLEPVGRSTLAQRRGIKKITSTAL
Rho-associated protein kinase 1 (Homo sapiens), sequence (Q13464 2-1354 limits assumed): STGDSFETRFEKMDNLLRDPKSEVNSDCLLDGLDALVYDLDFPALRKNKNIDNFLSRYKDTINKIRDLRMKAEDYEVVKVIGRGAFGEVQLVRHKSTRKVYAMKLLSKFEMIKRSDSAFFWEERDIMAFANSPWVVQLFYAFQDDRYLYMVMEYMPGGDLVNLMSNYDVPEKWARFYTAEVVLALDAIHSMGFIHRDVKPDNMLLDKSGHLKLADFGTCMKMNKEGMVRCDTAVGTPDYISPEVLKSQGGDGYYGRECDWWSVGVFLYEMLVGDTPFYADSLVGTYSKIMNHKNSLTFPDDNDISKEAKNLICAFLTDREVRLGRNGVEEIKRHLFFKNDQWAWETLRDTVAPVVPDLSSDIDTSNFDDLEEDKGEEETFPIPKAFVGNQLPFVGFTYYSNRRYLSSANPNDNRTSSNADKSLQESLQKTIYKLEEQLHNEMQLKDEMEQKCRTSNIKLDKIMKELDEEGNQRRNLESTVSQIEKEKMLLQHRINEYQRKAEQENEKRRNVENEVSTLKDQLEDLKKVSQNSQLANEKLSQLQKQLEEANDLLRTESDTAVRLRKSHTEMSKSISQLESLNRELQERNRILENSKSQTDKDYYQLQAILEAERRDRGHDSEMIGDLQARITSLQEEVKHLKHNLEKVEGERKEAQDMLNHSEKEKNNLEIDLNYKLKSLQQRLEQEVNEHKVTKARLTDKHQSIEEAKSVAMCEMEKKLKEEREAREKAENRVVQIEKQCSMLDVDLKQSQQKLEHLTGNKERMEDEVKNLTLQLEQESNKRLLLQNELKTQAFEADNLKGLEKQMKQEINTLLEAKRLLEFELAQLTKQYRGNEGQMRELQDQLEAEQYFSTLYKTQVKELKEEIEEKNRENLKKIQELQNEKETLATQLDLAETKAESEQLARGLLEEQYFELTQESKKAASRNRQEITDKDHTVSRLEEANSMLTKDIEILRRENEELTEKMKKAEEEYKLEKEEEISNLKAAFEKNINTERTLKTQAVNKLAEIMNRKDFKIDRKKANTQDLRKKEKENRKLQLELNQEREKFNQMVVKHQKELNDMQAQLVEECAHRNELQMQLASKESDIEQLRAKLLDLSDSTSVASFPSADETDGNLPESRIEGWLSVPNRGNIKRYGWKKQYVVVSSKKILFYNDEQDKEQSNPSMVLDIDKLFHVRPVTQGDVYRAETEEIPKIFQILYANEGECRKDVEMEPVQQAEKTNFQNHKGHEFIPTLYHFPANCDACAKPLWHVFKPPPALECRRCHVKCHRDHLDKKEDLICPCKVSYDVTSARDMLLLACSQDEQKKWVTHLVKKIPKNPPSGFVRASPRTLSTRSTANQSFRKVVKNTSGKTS
Calcium/calmodulin-dependent protein kinase type 1 (Homo sapiens), sequence (Q14012 whole entry, looked up): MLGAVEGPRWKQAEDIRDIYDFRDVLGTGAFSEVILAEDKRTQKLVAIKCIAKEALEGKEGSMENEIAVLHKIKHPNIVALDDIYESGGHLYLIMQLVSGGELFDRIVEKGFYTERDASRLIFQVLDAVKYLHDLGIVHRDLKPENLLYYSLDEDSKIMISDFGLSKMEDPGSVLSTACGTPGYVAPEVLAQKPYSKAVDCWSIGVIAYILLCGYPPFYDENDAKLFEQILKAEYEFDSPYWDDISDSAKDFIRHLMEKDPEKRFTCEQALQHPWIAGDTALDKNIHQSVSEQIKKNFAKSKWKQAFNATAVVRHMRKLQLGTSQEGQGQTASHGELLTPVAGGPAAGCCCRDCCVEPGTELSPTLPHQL
Serine/threonine-protein kinase 38-like (Homo sapiens), sequence (Q9Y2H1 2-464 limits assumed): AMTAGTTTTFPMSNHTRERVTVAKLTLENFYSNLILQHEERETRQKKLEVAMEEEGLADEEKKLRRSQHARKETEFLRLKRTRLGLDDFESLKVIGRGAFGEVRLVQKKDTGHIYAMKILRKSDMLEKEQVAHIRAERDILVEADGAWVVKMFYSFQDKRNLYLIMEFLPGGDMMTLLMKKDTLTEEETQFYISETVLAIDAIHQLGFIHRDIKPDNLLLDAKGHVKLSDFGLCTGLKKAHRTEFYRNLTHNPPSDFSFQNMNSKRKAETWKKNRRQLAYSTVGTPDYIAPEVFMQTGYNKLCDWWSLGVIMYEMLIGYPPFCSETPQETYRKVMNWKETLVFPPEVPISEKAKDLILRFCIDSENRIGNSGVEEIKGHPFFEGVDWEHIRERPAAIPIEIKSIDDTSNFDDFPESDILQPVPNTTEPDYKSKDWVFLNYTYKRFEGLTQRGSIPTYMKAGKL
Mitogen-activated protein kinase kinase kinase 1, sequence (Q13233 whole entry): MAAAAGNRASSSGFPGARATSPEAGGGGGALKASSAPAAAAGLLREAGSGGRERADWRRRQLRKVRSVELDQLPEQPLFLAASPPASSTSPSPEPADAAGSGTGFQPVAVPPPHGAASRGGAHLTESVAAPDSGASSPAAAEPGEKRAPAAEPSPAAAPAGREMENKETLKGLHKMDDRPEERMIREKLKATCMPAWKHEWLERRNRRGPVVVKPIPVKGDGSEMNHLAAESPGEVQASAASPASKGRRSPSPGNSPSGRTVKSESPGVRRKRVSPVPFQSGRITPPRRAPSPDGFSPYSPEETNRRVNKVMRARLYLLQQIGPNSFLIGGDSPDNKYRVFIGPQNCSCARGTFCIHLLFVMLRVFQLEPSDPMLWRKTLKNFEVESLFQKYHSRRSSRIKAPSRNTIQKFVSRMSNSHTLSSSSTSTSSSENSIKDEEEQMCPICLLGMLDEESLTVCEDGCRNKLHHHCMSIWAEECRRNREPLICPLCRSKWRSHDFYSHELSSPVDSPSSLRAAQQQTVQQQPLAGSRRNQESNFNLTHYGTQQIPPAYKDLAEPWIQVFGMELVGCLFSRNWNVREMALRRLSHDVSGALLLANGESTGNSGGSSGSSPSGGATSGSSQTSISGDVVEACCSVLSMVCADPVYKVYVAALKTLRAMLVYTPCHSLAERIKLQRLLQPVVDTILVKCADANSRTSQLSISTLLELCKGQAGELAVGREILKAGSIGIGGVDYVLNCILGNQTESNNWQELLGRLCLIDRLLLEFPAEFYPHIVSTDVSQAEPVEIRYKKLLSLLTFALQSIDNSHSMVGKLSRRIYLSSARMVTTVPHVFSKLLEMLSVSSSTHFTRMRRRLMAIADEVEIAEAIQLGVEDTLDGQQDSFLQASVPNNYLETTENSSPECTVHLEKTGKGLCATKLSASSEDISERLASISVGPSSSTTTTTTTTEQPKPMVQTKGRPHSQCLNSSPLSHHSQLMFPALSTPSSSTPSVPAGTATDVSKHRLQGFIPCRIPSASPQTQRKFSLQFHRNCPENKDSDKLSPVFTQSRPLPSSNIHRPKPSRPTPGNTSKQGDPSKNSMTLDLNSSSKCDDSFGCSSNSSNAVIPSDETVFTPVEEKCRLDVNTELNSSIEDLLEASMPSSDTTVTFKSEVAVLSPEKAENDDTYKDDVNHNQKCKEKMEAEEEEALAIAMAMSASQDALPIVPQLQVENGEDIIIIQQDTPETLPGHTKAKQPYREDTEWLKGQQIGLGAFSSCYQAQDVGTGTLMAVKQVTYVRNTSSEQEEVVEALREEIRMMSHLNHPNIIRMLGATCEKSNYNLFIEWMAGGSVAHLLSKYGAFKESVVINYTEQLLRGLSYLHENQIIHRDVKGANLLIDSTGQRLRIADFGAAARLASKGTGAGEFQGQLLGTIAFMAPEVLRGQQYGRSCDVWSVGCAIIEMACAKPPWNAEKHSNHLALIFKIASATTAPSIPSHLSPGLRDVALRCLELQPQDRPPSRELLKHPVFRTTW
Calcium/calmodulin-dependent protein kinase kinase 1 (Homo sapiens), sequence (Q8N5S9 whole entry, looked up): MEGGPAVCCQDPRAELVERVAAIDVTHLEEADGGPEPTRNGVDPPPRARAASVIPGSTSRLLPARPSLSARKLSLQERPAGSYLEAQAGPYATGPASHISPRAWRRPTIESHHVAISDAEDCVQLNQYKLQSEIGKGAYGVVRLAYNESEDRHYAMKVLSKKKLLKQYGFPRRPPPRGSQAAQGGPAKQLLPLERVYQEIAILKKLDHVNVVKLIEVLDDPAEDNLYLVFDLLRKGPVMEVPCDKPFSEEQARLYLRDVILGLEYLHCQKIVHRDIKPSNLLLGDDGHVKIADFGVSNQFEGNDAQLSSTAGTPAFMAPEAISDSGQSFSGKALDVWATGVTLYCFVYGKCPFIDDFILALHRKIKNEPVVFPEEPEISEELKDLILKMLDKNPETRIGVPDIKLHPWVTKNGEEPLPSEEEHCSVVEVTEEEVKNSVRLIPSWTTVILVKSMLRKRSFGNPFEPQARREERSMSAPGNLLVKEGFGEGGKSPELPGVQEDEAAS

**Q.** With `COc1cc(N(C)c2ccnc3ccc(C(F)(F)F)cc23)cc(OC)c1OC` as the compound, how does the % binding [1] read?
**A.** 97%

**Q.** And the % binding [2]?
**A.** 93%

**Q.** Which % of control [3] does the source give for `CN(C)CCOc1ccc(-c2nc(-c3ccncc3)c(-c3ccc4c(c3)CC/C4=N\O)[nH]2)cc1` here?
**A.** 100%

**Q.** Which pXC50 [4] does the source give for `CCn1c(-c2nc3cc(C(=O)N4CCCC(N)C4)ccc3n2C)cc2ccccc21` (centres undefined) here?
**A.** < 4.8 M

**Q.** Which results are given for `Nc1cnc(N2CCc3cc(S(=O)(=O)Nc4c(F)cc(Cl)cc4F)cc(N4CCCC4=O)c32)nc1` [TP-020n]?
**A.** % of control [5]: 100%; % of control [6]: 100%

**Q.** For `O=C(NOC[C@H](O)CO)c1ccc(F)c(F)c1Nc1ccc(I)cc1F`, which % of control [7] is on record?
**A.** 100%

**Q.** What does the source list for `Cn1cc(-n2cnc3c(NCc4nc5cc(Cl)c(Cl)cc5[nH]4)nc(N4CCOCC4)nc32)cn1`?
**A.** % of inhibition [8]: 22.8%; % of control [9]: 0.348%; % of inhibition [10]: -32.2%

**Q.** With `CC[C@@H]1[C@H](F)C(=O)N[C@@H]1COc1nccc2cc(C(N)=O)c(OC)cc12` [ZIMLOVISERTIB] as the compound, how does the % of inhibition [11] read?
**A.** 2.23%

**Q.** What about the % of inhibition [12] of the same compound?
**A.** -14.5%

**Q.** What about the % of inhibition [13] of the same compound?
**A.** 1.6%

**Q.** What about the % of inhibition [14] of the same compound?
**A.** 10.7%

**Q.** For `CNC(=O)Nc1ccc(-c2nc(N3CC4CCC(C3)O4)c3cnn(C4CCC5(CC4)OCCO5)c3n2)cc1`, which % of control [15] is on record?
**A.** 88%

**Q.** For `COc1cc(Nc2nc(C)cc(-c3cnn4nc(OC)ccc34)n2)cc(C(F)(F)F)c1`, which % of control [16] is on record?
**A.** 87%

**Q.** What does the source list for `Cc1cc(F)c(C(=O)Nc2cccc(-c3nncn3C(C)C)n2)cc1-n1cnc(C2CC2)c1`?
**A.** % of control [17]: 88%; % of control [18]: 93%

**Q.** For `CC[C@@H](Nc1c(C#N)c(-c2ccc(-c3cccc(C)c3F)cc2)nc2cnccc12)C(=O)O` [BAY-091], which % of inhibition [19] is on record?
**A.** 36%

**Q.** For `O[C@H]1CC[C@H](Nc2ncc3nc(Nc4c(F)cc(F)cc4F)n([C@H]4CCOC4)c3n2)CC1`, which % of control [20] is on record?
**A.** 100%

**Q.** What about the % of control [21] of the same compound?
**A.** 100%

**Q.** What about the % of control [22] of the same compound?
**A.** 91%

**Q.** Which % of control [23] does the source give for `CC(=O)c1cc(-c2ccccc2OCC2CC2)c2ncccn12` here?
**A.** 46%

**Q.** Which % of control [24] does the source give for `CN(C)C/C=C/C(=O)Nc1ccc(C(=O)N2CCCC(Nc3ncc(Cl)c(-c4c[nH]c5ccccc45)n3)C2)cc1` (centres undefined) here?
**A.** 89%
